From PMC5833756, “A novel ruthenium complex with xanthoxylin induces S-phase arrest and causes ERK1/2-mediated apoptosis in HepG2 cells through a p53-independent pathway” (Cell Death & Disease, 2018)
pIC50: −log10 of the molar value. Like-named read-outs stand apart in the source and are kept apart here. Marks after values point to notes of the source that are not given here. Residues, ends and D or L forms follow the SMILES beside them. *: point of attachment. Cbz = O=C(OCc1ccccc1)*; CH2F = FC*

Legend:
HepG2 cells [1] = experiment: Annexin V/PI staining assay (flow cytometry)
Description: For apoptosis detection, we used the FITC Annexin V Apoptosis Detection Kit I (BD Biosciences), and the analysis was performed according to the manufacturer’s instructions. Briefly, cells were washed twice with saline and then resuspended in 100 μL of binding buffer with 5 μL of PI and 5 μL of FITC Annexin V. The cells were gently mixed by vortexing and incubated for 15 min at room temperature in the dark. Afterwards, 400 μL of binding buffer was added to each tube, and the cell fluorescence was determined by flow cytometry, as described above. The percent of viable, early apoptotic, late apoptotic and necrotic cells were determined. […] The cells were then trypsinized, and the FITC Annexin V Apoptosis Detection assay was conducted as described above.

B16-F10 = format: cell-based, mouse; settings: B16-F10 (murine melanoma), 72 h
MRC-5 = format: cell-based; settings: MRC-5 (human lung fibroblast, non-cancer), 72 h
K-562 = format: cell-based, human; settings: K-562 (human chronic myelogenous leukemia), 72 h
SCC-4 = format: cell-based, human; settings: SCC-4 (human oral squamous cell carcinoma), 72 h
HepG2 = format: cell-based, human; settings: HepG2 (human hepatocellular carcinoma), monolayer, 72 h
HL-60 = format: cell-based, human; settings: HL-60 (human promyelocytic leukemia), 72 h
PBMC = format: cell-based; settings: PBMC (human peripheral blood mononuclear cells, non-cancer), 72 h
HCT116 = format: cell-based, human; settings: HCT116 (human colon carcinoma), 72 h
HepG2 cells [2] = experiment: Trypan blue exclusion assay; format: cell-based, human
[3] = tested on: multicellular spheroids formed from HepG2 cells; experiment: 3D multicellular spheroid culture, alamar blue; format: cell-based, human; settings: HepG2 3D spheroids, 72 h
Description: HepG2 cells were cultivated in 3D multicellular spheroids. Briefly, 100 μL of cell solution (0.5 × 10^6 cells/mL) was added to a 96-well plate with a cell-repellent surface (Greiner Bio-One, Kremsmünster, Austria) and cultured in complete medium plus 3% Matrigel (BD Biosciences, San Jose, CA, USA). Spheroids with stable structures formed after three days. Then, the spheroids were exposed to a range of drug concentrations for 72 h. The negative control received the vehicle that was used for diluting the complex tested. In the end of the experiment, morphological changes were examined by light microscopy (Olympus BX41, Tokyo, Japan) using Image-Pro software (Media Cybernetics, Inc. Silver Spring, USA), and cell viability was quantified by alamar blue assay as described above.

HepG2 cells [4] = format: cell-based, human; settings: DOX 2 µM, OXA 10 µM, RCX 12 µM
Description: Briefly, the cells were harvested in a permeabilization solution containing 0.1% Triton X-100, 2 µg/mL PI, 0.1% sodium citrate and 100 µg/mL RNAse (all from Sigma-Aldrich) and incubated in the dark for 15 min at room temperature. Finally, cell fluorescence was measured by flow cytometry with a BD LSRFortessa cytometer using BD FACSDiva Software (BD Biosciences) and FlowJo Software 10 (FlowJo Lcc; Ashland, OR, USA). Ten thousand events were evaluated per experiment, and cellular debris was omitted from the analysis.

HSC-3 = format: cell-based, human; settings: HSC-3 (human oral squamous cell carcinoma), 72 h
HepG2 cells [5] = experiment: DNA synthesis quantification (methyl-[3H]-thymidine incorporation); format: cell-based, human; settings: HepG2, 12 μM
Description: Cellular DNA synthesis was quantified by the incorporation of methyl-[^3H]-thymidine. Methyl-[^3H]-thymidine is a radiolabeled DNA precursor that is incorporated into newly synthesized DNA. Briefly, the complex was added along with 1 µCi of methyl-[^3H]-thymidine (PerkinElmer; Shelton, CT, USA) and incubated for 3 h. After this incubation period, cultures were harvested using a cell harvester (Brandel, Inc., Gaithersburg, MD, USA), and the amount of incorporated^3H-thymidine was determined using a liquid scintillation cocktail Hidex Maxilight (PerkinElmer Life Sciences; Groningen, GE, Netherlands) and a plate CHAMELEON V multilabel Counter (Mustionkatu 2, Turku, Finland). Mitoxantrone (Sigma-Aldrich) was used as the positive control.

[6] = tested on: panel of 15 cancer cell lines and 3 non-cancer cells; experiment: Alamar blue cytotoxicity assay, whole panel; format: cell-based; settings: any cells of the panel, 72 h
Description: A panel of 15 cancer cell lines, 3 non-cancer cells and 1 mutant and its parental cell line were selected for this study, as detailed in Table S5. The cells were cultured in RPMI 1640 medium (Gibco-BRL, Gaithersburg, MD, USA) with 10% fetal bovine serum (Life, Carlsbad, CA, USA), 2 mM L-glutamine (Vetec Química Fina, Duque de Caxias, RJ, Brazil) and 50 μg/mL gentamycin (Life, Carlsbad, CA, USA). Adherent cells were collected by treatment with 0.25% trypsin EDTA solution (Gibco-BRL). All cell lines were cultured in flasks at 37 °C in 5% CO2 and subcultured every 3–4 days to maintain exponential growth. All cell lines were tested for mycoplasma using a mycoplasma stain kit (Sigma-Aldrich) to validate the use of cells free from contamination. […]
Cell viability was quantified colorimetrically using the alamar blue assay according to Ahmed et al.[34]. […] Absorbance was measured at 570 nm and 600 nm using the SpectraMax 190 Microplate Reader (Molecular Devices, Sunnyvale, CA, USA), and the drug effect was quantified as a percent of the absorbance of the control-treated cells.

BAD KO SV40 MEF = format: cell-based, mouse; settings: Mus musculus, 72 h
WT SV40 MEF = format: cell-based, mouse; settings: Mus musculus, 72 h
[7] = DOX 0.3 mg/kg, 5-FU 10 mg/kg
Description: (§1) HepG2 cells (1 × 10^7 cells per 500 µL) were implanted subcutaneously into the left front armpit of the mice. […] The treatments were initiated one day after the tumor cell injection. The animals were treated intraperitoneally (200 µL per animal) once daily for 21 consecutive days. On the 22nd day, the animals were anesthetized, and peripheral blood samples were collected from the brachial artery. Animals were euthanized by anesthetic overdose, and tumors were excised and weighed.
To assess the toxicological effects, mice were weighed at the beginning and at the end of the experiment. […] Hematological analysis was performed using light microscopy. Livers, kidneys, lungs and hearts were removed, weighed and examined for any signs of gross lesions, color changes and/or hemorrhages. After gross macroscopic examination, the tumors, livers, kidneys, lungs and hearts were fixed in 4% formalin buffer and embedded in paraffin. Tissue sections were stained with hematoxylin and eosin chromogens, and a pathologist performed the analysis under a light microscope.

HepG2 cell xenografts = experiment: Human hepatocellular carcinoma xenograft model; format: in vivo, C.B-17 SCID mice; settings: 0.3 mg/kg doxorubicin, 10 mg/kg 5-fluorouracil, i.p. once a day for 21 days
Description: Animals were housed in cages with free access to food and water. All animals were kept under a 12:12 h light-dark cycle (lights on at 6:00 a.m.). The local Animal Ethics Committee approved the experimental protocol (number 06/2015).
as §1

[8] = HepG2, 2 h pretreatment (50 µM Z-VAD(Ome)-FMK, 20 µM Z-IETD-FMK, 20 µM Z-LEHD-FMK, 5 µM U-0126, 5 µM SP 600125, 5 µM PD 169316, 10 µM cyclic pifithrin-α), then 12 µM RCX 48 h
[9] = peripheral blood, i.p. 21 days, RCX 2.5 mg/kg
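Throughout, for Final body weight: mice bearing subcutaneous HepG2 xenografts, given intraperitoneal doses once daily for 21 days, weighed at start and end, blood leukocytes counted by light microscopy on day 22.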
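Throughout, for Heart relative weight: mice bearing subcutaneous HepG2 xenografts, given intraperitoneal doses once daily for 21 days, weighed at start and end, blood leukocytes counted by light microscopy on day 22.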
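Throughout, for Initial body weight: mice bearing subcutaneous HepG2 xenografts, given intraperitoneal doses once daily for 21 days, weighed at start and end, blood leukocytes counted by light microscopy on day 22.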
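Throughout, for Kidney relative weight: mice bearing subcutaneous HepG2 xenografts, given intraperitoneal doses once daily for 21 days, weighed at start and end, blood leukocytes counted by light microscopy on day 22.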

With `Oc1c2ccccc2c2c3c(cccc13)N=N2` [SP 600125] the “effect of inhibitor pretreatment on RCX-induced apoptosis” value (“effect of inhibitor pretreatment” below) (HepG2 cells [1]; [8]) was “did not prevent RCX-induced apoptosis”.

With `O=C1[O][Pt]2([NH][C@@H]3CCCC[C@H]3[NH]2)[O]C1=O` [OXA, oxaliplatin] the pIC50 (B16-F10) was 5.66, the pIC50 (MRC-5) was 5.02 and the pIC50 (K-562) was 6.00. It also gave a pIC50 (SCC-4) of 5.11, a pIC50 (HepG2) of 5.66 and a pIC50 (HL-60) of 6.22. The pIC50 (PBMC) was 5.03, the pIC50 (HCT116) was 5.39 and the “change in the number of viable cells” value (HepG2 cells [2]; HepG2, 24 h, DOX 2 µM, OXA 10 µM) was “reduced the number of viable cells”. For the same molecule, the pIC50 [3] was 5.18, the “DNA content S” value (HepG2 cells [4]; HepG2, 12 h) was 12.9 ± 4.4% and the “DNA content S” value (HepG2 cells [4]; HepG2, 24 h) was 18.5 ± 1.4%. For the same molecule, the “DNA content S” value (HepG2 cells [4]; HepG2, 48 h) was 21.2 ± 1.7 %, the “DNA content S” value (HepG2 cells [4]; HepG2, 72 h) was 16.2 ± 1.1% and the pIC50 (HSC-3) was 5.48.

In the case of `O=C1c2c(O)ccc(O)c2C(=O)c2c(NCCNCCO)ccc(NCCNCCO)c21` [Mitoxantrone], the “reduction of DNA synthesis” value (HepG2 cells [5]) was 55.2%.

In the case of `CC(=O)N[C@@H](CS)C(=O)O` [N-acetyl-L-cysteine], the “protection against RCX-induced reduction in viable cells” value (HepG2 cells [2]; HepG2, 1 h pretreatment with 5 mM NAC, then 12 µM RCX for 24 h) was “did not prevent the reduction in the number of viable cells”.

For `Cc1ccc(-c2cn3c4c(sc3n2)CCCC4)cc1` [cyclic pifithrin-α], the “effect of inhibitor pretreatment” value (HepG2 cells [1]) was “did not prevent the RCX-induced apoptosis”.

In the case of `N#CC(=C(/N)Sc1ccccc1N)/C(C#N)=C(/N)Sc1ccccc1N` [U-0126], the “effect of inhibitor pretreatment” value (HepG2 cells [1]) was “prevented RCX-induced apoptosis”.

With `CC[C@H](C)[C@H](NC(=O)OCc1ccccc1)C(=O)N[C@@H](CCC(=O)OC)C(=O)N[C@H](C(=O)N[C@@H](CC(=O)OC)C(=O)CF)[C@@H](C)O` [Z-IETD-FMK] (Cbz-IE(OMe)TD(OMe)-CH2F) the “effect of inhibitor pretreatment” value (HepG2 cells [1]) was “prevented the RCX-induced apoptosis”.

With `COC(=O)C[C@H](NC(=O)[C@H](C)NC(=O)[C@@H](NC(=O)OCc1ccccc1)C(C)C)C(=O)CF` [Z-VAD(OMe)-FMK] (Cbz-Val-Ala-Asp(OMe)-CH2F) the “effect of inhibitor pretreatment” value (HepG2 cells [1]) was “prevented the RCX-induced apoptosis”.

With `COc1cc(O)c(C(C)=O)c(OC)c1` [xanthoxylin, 2-hydroxy-4,6-dimethoxyacetophenone] the pIC50 [6] was < 3.89.

In the case of `O=c1[nH]cc(F)c(=O)[nH]1` [5-FU, 5-fluorouracil], the pIC50 (BAD KO SV40 MEF) was 5.14, the pIC50 (WT SV40 MEF) was 5.77 and the Initial body weight ([7]; before treatment, RCX 2.5 mg/kg groups) was 25.2 ± 0.4 g. The Final body weight ([7]; i.p. 21 days, RCX 2.5 mg/kg) was 24.1 ± 1.7 g, the Heart relative weight ([7]; i.p. 21 days, RCX 2.5 mg/kg) was 0.5 ± 0.2 g/100 g body weight and the Kidney relative weight ([7]; i.p. 21 days, RCX 2.5 mg/kg) was 1.2 ± 0.4 g/100 g body weight. The Liver relative weight ([7]; i.p. 21 days, RCX 2.5 mg/kg) was 3.4 ± 0.7 g/100 g body weight, the Lung relative weight ([7]; i.p. 21 days, RCX 2.5 mg/kg) was 0.6 ± 0.2 g/100 g body weight and the Survival ([7]; i.p. 21 days, RCX 2.5 mg/kg) was 9/15. The “Differential leukocytes: Eosinophils” value [7, 9] was 1.0%, the “Differential leukocytes: Lymphocytes” value [7, 9] was 32.8% and the “Differential leukocytes: Monocytes” value [7, 9] was 1.3%. The “Differential leukocytes: Neutrophils” value [7, 9] was 65.0%, the Erythrocytes [7, 9] was 8.4 ± 0.5 10^6cells/μL and the Total leukocytes [7, 9] was 1.8 ± 0.3* 10^3cells/μL. For the same molecule, the “reduction of tumor weight” value (HepG2 cell xenografts) was 40.3%.

With `COC(=O)CC[C@H](NC(=O)[C@H](CC(C)C)NC(=O)OCc1ccccc1)C(=O)N[C@@H](Cc1cnc[nH]1)C(=O)N[C@@H](CC(=O)OC)C(=O)CF` [Z-LEHD-FMK] (Cbz-LE(OMe)HD(OMe)-CH2F) the “effect of inhibitor pretreatment” value (HepG2 cells [1]; [8]) was “prevented the RCX-induced apoptosis”.
